The structures appear in SMILES notation.

Vitamin D3 receptor (Rattus norvegicus), sequence (P13053 whole entry, looked up): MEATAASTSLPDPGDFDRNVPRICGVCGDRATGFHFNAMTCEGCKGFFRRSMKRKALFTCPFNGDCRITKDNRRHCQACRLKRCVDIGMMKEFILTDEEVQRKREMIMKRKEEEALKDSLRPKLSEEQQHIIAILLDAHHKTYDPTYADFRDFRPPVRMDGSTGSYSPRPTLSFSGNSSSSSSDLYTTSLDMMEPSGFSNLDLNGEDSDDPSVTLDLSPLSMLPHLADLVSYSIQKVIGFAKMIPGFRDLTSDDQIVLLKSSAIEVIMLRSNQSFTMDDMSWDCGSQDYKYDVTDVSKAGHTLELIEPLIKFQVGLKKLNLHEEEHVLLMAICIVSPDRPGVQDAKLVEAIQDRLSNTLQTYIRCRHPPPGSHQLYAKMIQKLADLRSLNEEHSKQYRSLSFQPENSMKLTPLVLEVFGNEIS

This experiment has as its target Vitamin D3 receptor (Rattus norvegicus) (UniProt P13053). The experiment is described as follows: In vitro study, VDR binding assay were performed as previously described.
The Ki is the equilibrium dissociation constant of an inhibitor or competing ligand from its target. Regarding `C=C1[C@H](O)CC(=C/C=C2\CCC[C@@]3(C)C2CCC3[C@@H](C)CCCCO)C[C@H]1O` (some centres undefined) [Vitamin D analog, 7], the Ki was 0.3 nM. The value for `C=C1[C@H](O)CC(=C/C=C2\CCC[C@@]3(C)C2CCC3[C@H](C)CCCC)C[C@H]1O` (some centres undefined) [Vitamin D analog, 8] was 0.3 nM; that for `C=C1[C@H](O)CC(=C/C=C2\CCC[C@@]3(C)C2CCC3[C@@H](C)CCCC)C[C@H]1O` (some centres undefined) [Vitamin D analog, 9] was 0.3 nM; that for `C=C1[C@H](O)CC(=C/C=C2\CCC[C@@]3(C)C2CCC3[C@H](C)CCCCO)C[C@H]1O` (some centres undefined) [Vitamin D analog, 6] was 0.2 nM.

These data come from BindingDB's records for doi:10.1016/j.bioorg.2013.01.001 (University of Wisconsin-Madison, 2013).
